{
  "source": "patent US20220127584A1",
  "about": "“Reactive persulfides mediate sulfur respiration in mitochondria via sulfide:quinone oxidoreductase” (Bio-Xcelerator, Inc., priority 2020, published 2022)",
  "key": {"WT and Sqrdl^ΔN/ΔN MEFs": {"test_system": "WT and Sqrdl^ΔN/ΔN MEFs", "assay": "MEF mitochondrial membrane potential (JC-1 staining)", "type": "cell-based, mouse", "method": "To determine the membrane potential of mitochondria under several experimental conditions, JC-1 staining was performed according to the method previously reported ^37,38. Accumulation of the cell-permeable JC-1 probe (Abcam) in mitochondria depends on the membrane potential and is associated with a fluorescence emission shift from green (emission 527 nm) to red (emission 590 nm). Briefly, WT and Sqrdl^ΔN/ΔN MEFs, cultured in 8-well multichamber slides (Matsunami, Osaka, Japan) coated with collagen, were treated with mitochondrial ETC inhibitors (rotenone, atpenin A5, and antimycin A) the and ADP/ATP carrier inhibitor CATR^23 as described in the figure legends. For JC-1 staining, cultured cells were washed with HKRB buffer (20 mM HEPES, 103 mM NaCl, 4.77 mM KCl, 0.5 mM CaCl2, 1.2 mM MgCl2, 1.2 mM KH2PO4, 25 mM NaHCO3, and 15 mM glucose, pH 7.3), incubated with 20 μM JC-1 at 37° C. for 20 min, rinsed twice with HKRB buffer, and examined with a confocal laser scanning microscope (Nikon C2 plus, with NIS-Elements 5.01 software). ImageJ software was used for image processing and calculation of JC-1 fluorescence intensities."}, "[1]": {"test_system": "fission yeast (Schizosaccharomyces pombe)", "type": "cell-based", "conditions": "SQR-deficient yeast (Δhmt2) compared with WT yeast; increasing/high concentrations"}, "[2]": {"test_system": "mitochondria from WT and Sqrdl^ΔN/ΔN MEFs", "assay": "Membrane potential of isolated mitochondria (TMRE time-lapse imaging)", "set-up": "species or system mouse", "conditions": "for membrane potential of isolated mitochondria: supplementation to isolated MEF mitochondria", "method": "MEF mitochondria were isolated by differential centrifugation. WT and Sqrdl^ΔN/ΔN MEFs were homogenized in the extraction buffer (10 mM Tris-HCl, 250 mM sucrose, and 0.5 mM EGTA, pH 7.4) with a Dounce homogenizer (Teflon glass) and were centrifuged at 2,000 g at 4° C. for 5 min to remove nuclei and cell debris. The supernatants were centrifuged at 12,000 g at 4° C. for 10 min, and mitochondrial pellets were washed three times with buffer and kept at −80° C. until use.\nTo determine the membrane potential in isolated mitochondria under several experimental conditions, TMRE staining was performed according to the method previously reported^40. The TMRE fluorescence intensity at a maximum emission of 574 nm depends on the mitochondrial membrane potential. Briefly, mitochondria from WT and Sqrdl^ΔN/ΔN MEFs were adsorbed on the bottom of 8-well μ-Slides (Ibidi, Martinsreid, Germany) coated with poly-D-lysine (Sigma-Aldrich, St. Luis, Mo., USA), after which they were stained with 10 nM TMRE (Biotium, Fremont, Calif., USA) and 50 nM MitoTracker Green FM (Thermo Fisher Scientific, Waltham, Mass., USA) at 25° C. for 10 min. TMRE fluorescence intensity (561 nm excitation and 605±15 nm emission), which is positive with MitoTracker Green FM fluorescence, was measured in individual mitochondria by using the region of interest (ROI) tool of the confocal laser scanning microscope (Nikon C2 plus, with NIS elements version 5.01 software). […] Specifically, of 200 ROIs, the top 30 ROIs were selected for analysis of TMRE fluorescence intensity in response to TMPD/ascorbate, and their means and s.d. values were calculated."}, "[3]": {"test_system": "isolated mitochondria from WT and Sqrdl^ΔN/ΔN MEFs", "assay": "Quantification of sulfur metabolites in isolated mitochondria (LC-ESI-MS/MS)", "set-up": "species or system mouse", "conditions": "addition to isolated mitochondria", "method": "Yeast, mouse tissues, and MEFs were analyzed for the low-molecular-weight analytes cysteine (CysSH), cysteine hydropersulfide (CysSSH), glutathione (GSH), glutathione hydropersulfide (GSSH), bis-S (H2S), bis-SS (HSSH), cystine (CysSSCys), oxidized glutathione, or glutathione disulfide (GSSG), oxidized glutathione trisulfide (GSSSG), and thiosulfate (HS2O3^−) as previously described^9. Briefly, samples were homogenized with a Psychotron homogenizer (Microtec Co. Ltd.) or sonicator in ice-cold methanol in the presence of 5 mM β-(4-hydroxyphenyl)ethyl iodoacetamide (HPE-IAM). Homogenates were incubated at 37° C. for 20 min and then centrifuged at 15,000 rpm at 4° C. for 10 min. Supernatants were separated and diluted 10 times with 0.1% formic acid. Stable isotope-labeled internal standards dissolved in 0.1% formic acid solution were added to the samples to a final concentration of 25 nM. A sample of 10 μl was injected into the LC-ESI-MS/MS instrument (LCMS-8060). Various persulfide derivatives were identified and quantified by means of MRM, as previously described^9. Cell pellets were reconstituted in 0.1% SDS in PBS buffer, homogenized by sonication, and centrifuged again at 15,000 rpm at 4° C. for 10 min. […] Each analyte concentration was normalized to the measured protein concentration. […]"}, "[4]": {"test_system": "fission yeast (Schizosaccharomyces pombe)", "assay": "Chronological life span of yeast", "type": "cell-based", "method": "Three single colonies derived from each strain were analyzed, as previously described^31 with slight modification. Yeast cells were cultured in SC medium (at a starting OD600 of 0.1) at 30° C. with shaking. Measurement of cell viability began after 72 h of culture (day 0) and continued every 2-3 days by plating a fraction of the culture onto a fresh YPD plate (2% glucose, 0.5% yeast extract, 1% peptone, and 2% agar) to determine the number of colony-forming units (CFUs). […] Cell survival rates were calculated by normalizing the CFUs at each time point to the CFUs at day 0."}, "[5]": {"test_system": "mitochondria isolated from livers of WT and Sqrdl^ΔN/ΔN mice", "assay": "Oxygen consumption of liver mitochondria (Clark-type electrode)", "set-up": "species or system mouse", "conditions": "10-μM NaHS supply", "method": "Mitochondria were isolated from 4- to 6-week-old mice by using two-step differential centrifugations, as previously described^41 with minor modifications. In brief, after gallbladder removal, fresh liver specimens weighing 1.0-1.5 g were minced and homogenized in ice-cold isolation buffer (10 mM Tris/MOPS, 1 mM EGTA/Tris, and 200 mM sucrose, pH 7.4). When liver weight was less than 1 g, livers were pooled. Homogenate were centrifuged at 600 g and 4° C. for 10 min to remove cellular debris and nuclei. Supernatants containing mitochondrial fraction were then centrifuged at 7,000 g at 4° C. for 10 min. Obtained mitochondrial pellets were washed with new isolation buffer and underwent centrifugation again (7,000 g for 10 min). […] The protein concentration was determined with the BCA Protein Assay Kit (Thermo Fisher Scientific). Absorbance at 562 nm was measured with NanoDrop 2000 (Thermo Fisher Scientific).\nMitochondrial oxygen consumption was measured by using a Clark-type electrode (Oxytherm system; Hansatech Instruments, Norfolk, UK). […] The OCR through complex I was measured as a mitochondrial basic function by sequentially adding 2.5 mM malate/5 mM glutamate, 150 μM ADP, and 100 nM carbonyl cyanide 4-(trifluoromethoxy) phenylhydrazone (FCCP). The respiratory control index (RCI) was calculated by using the ratio of state 3 to state 4. […]"}, "[6]": {"conditions": "WT MEFs, increasing concentrations in the culture media, SQR-dependent"}},
  "data": [
    {"molecule": "C=C1[C@@H]2CC[C@H]3[C@]4(C)C[C@H](O[C@@H]5O[C@H](CO)[C@@H](OS(=O)(=O)O)[C@H](OS(=O)(=O)O)[C@H]5OC(=O)CC(C)C)CC(C(=O)O)(C(=O)O)[C@H]4CC[C@]3(C2)[C@H]1O", "note": "[CATR, carboxyatractyloside]", "values": [
      {"measurement": "mitochondrial membrane potential", "setting": "WT and Sqrdl^ΔN/ΔN MEFs; Sqrdl^ΔN/ΔN MEFs, CATR treatment", "result": "did not observe this increase"},
      {"measurement": "mitochondrial membrane potential", "setting": "WT and Sqrdl^ΔN/ΔN MEFs; WT MEFs, CATR treatment", "result": "increased the membrane potential"}
    ]},
    {"molecule": "[Cl][Cd][Cl]", "note": "[Cd, CdCl2]", "values": [
      {"measurement": "susceptibility of yeast growth to the substance", "setting": "[1]", "result": "enhanced susceptibility to Cd toxicity"}
    ]},
    {"molecule": "N[C@@H](CCC(=O)N[C@@H](CSSSC[C@H](NC(=O)CC[C@H](N)C(=O)O)C(=O)NCC(=O)O)C(=O)NCC(=O)O)C(=O)O", "note": "[GSSSG, glutathione trisulfide]", "values": [
      {"measurement": "membrane potential of isolated mitochondria", "setting": "[2]", "result": "increased the membrane potential"},
      {"measurement": "levels of glutathione hydropersulfide (GSSH)", "setting": "[3]", "result": "increased levels of glutathione hydropersulfide (GSSH)"}
    ]},
    {"molecule": "[Na+].[Na+].[S-][S-]", "note": "[Na2S2, sodium disulfide]", "values": [
      {"measurement": "membrane potential of isolated mitochondria", "setting": "[2]", "result": "results that were quite similar to those induced by NaHS"},
      {"measurement": "chronological lifespan", "setting": "[4]; SQR-deficient yeast", "result": "no effect"},
      {"measurement": "chronological lifespan", "setting": "[4]; WT yeast", "result": "extended the lifespan"},
      {"measurement": "mitochondrial membrane potential", "setting": "WT and Sqrdl^ΔN/ΔN MEFs; [6]", "result": "elevation of membrane potential"}
    ]},
    {"molecule": "S", "note": "[NaHS, sodium hydrosulfide]", "values": [
      {"measurement": "membrane potential response to succinate, malate, and glutamate and to TMPD with ascorbate", "setting": "[2]; 3 μM NaHS, isolated mitochondria", "result": "retained the membrane potential response"},
      {"measurement": "concentration at which the membrane potential response was halted", "setting": "[2]; isolated mitochondria, data not shown", "result": "more than 30 μM"},
      {"measurement": "membrane potential of isolated mitochondria", "setting": "[2]", "result": "generated the membrane potential in an SQR-dependent manner"},
      {"measurement": "oxygen consumption", "setting": "[5]", "result": "induced a small oxygen consumption only in WT mitochondria"},
      {"measurement": "chronological lifespan", "setting": "[4]; SQR-deficient yeast", "result": "no effect"},
      {"measurement": "chronological lifespan", "setting": "[4]; WT yeast", "result": "extended the lifespan"},
      {"measurement": "mitochondrial membrane potential", "setting": "WT and Sqrdl^ΔN/ΔN MEFs; [6]", "result": "elevation of membrane potential"}
    ]},
    {"molecule": "COc1[nH]c(=O)c(C(=O)[C@@H](C)C[C@H](C)[C@@H](Cl)CCl)c(O)c1OC", "note": "[atpenin A5]", "values": [
      {"measurement": "effect on CATR-induced increase in membrane potential", "setting": "WT and Sqrdl^ΔN/ΔN MEFs; WT MEFs", "result": "not significantly affected"}
    ]},
    {"molecule": "N[C@@H](CSSC[C@H](N)C(=O)O)C(=O)O", "note": "[cystine]", "values": [
      {"measurement": "mitochondrial membrane potential", "setting": "WT and Sqrdl^ΔN/ΔN MEFs; [6]", "result": "elevation of membrane potential"}
    ]},
    {"molecule": "C=C(C)[C@H]1Cc2c(ccc3c2O[C@@H]2COc4cc(OC)c(OC)cc4[C@@H]2C3=O)O1", "note": "[rotenone]", "values": [
      {"measurement": "effect on CATR-induced increase in membrane potential", "setting": "WT and Sqrdl^ΔN/ΔN MEFs; WT MEFs", "result": "not significantly affected"}
    ]},
    {"molecule": "antimycin A", "values": [
      {"measurement": "effect on CATR-induced increase in membrane potential", "setting": "WT and Sqrdl^ΔN/ΔN MEFs; WT MEFs", "result": "reduced"}
    ]}
  ]
}
